The results in this text go back to PubChem BioAssay (NCI).

Some test systems named below: ACHN renal; OVCAR-4 ovarian; OVCAR-8 ovarian; K-562 leukemia; CAKI-1 renal; UO-31 renal; SN12C renal; SNB-19 CNS; OVCAR-5 ovarian; SK-OV-3 ovarian.
Common to all, as to test: inhibition of tumour cell growth, NCI panel, 48 h

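Where inhibition never reached the appropriate level, the endpoint shown equals the highest concentration tested. Otherwise, values were interpolated linearly from a five-concentration, 48-hour dose response in 96-well plates. At the GI50, growth is halved. At the TGI there is no net growth.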

In the case of `COC(=O)[C@H](C)[C@@H]1CC[C@](C)(CCC2=C(C)CCCC2(C)C)OO1`, the TGI with ACHN renal, in the assay with OVCAR-4 ovarian, with OVCAR-8 ovarian, with K-562 leukemia, in the assay on CAKI-1 renal and in the assay on UO-31 renal was > 25 µM in each case. The TGI in the assay on SN12C renal, with SNB-19 CNS, in the assay on OVCAR-5 ovarian and in the assay with SK-OV-3 ovarian was > 25 µM each time.
On to `COc1c(OC)c(OC)c(-c2cc(=O)c3c(OC)c(OC)c(OC)c(OC)c3o2)c(OC)c1OC`, for which the TGI in the assay with ACHN renal was > 100 µM; in the assay on OVCAR-4 ovarian, 33.7 µM; in the assay with OVCAR-8 ovarian it was > 100 µM; with K-562 leukemia, > 100 µM; with CAKI-1 renal, > 100 µM; with UO-31 renal, > 100 µM. The TGI with SN12C renal, in the assay on SNB-19 CNS, in the assay on OVCAR-5 ovarian and with SK-OV-3 ovarian was > 100 µM each time.
Take `ClCc1ccc(-c2ccc(Cn3cnc4c(Cl)ncnc43)cc2)cc1`: the GI50 with ACHN renal is 1500 nM; with OVCAR-4 ovarian it was 1460 nM; in the assay with OVCAR-8 ovarian, 2800 nM; with K-562 leukemia it was 2900 nM; in the assay with CAKI-1 renal, 1470 nM; with UO-31 renal it was 2290 nM. Also, the GI50 in the assay on SN12C renal was 1640 nM; with SNB-19 CNS it was 2590 nM; with OVCAR-5 ovarian, 2310 nM; in the assay on SK-OV-3 ovarian, 1980 nM. Also, the TGI was 2.89 µM with ACHN renal; 4.28 µM in the assay on OVCAR-4 ovarian; 8.95 µM in the assay on OVCAR-8 ovarian; > 100 µM with K-562 leukemia; 2.87 µM in the assay with CAKI-1 renal; 5.21 µM in the assay on UO-31 renal. Besides, the TGI with SN12C renal worked out at 3.69 µM; with SNB-19 CNS, 8.1 µM; in the assay on OVCAR-5 ovarian, 6.01 µM; in the assay with SK-OV-3 ovarian it was 6.14 µM.
`C=C(C)C1CCC2(C(=O)O)CCC3(C)C(CCC4C5(C)CCC(O)C(C)(C)C5CCC43C)C12` (stereo not given): the TGI in the assay with ACHN renal worked out at 21.1 µM; with OVCAR-4 ovarian, 14.7 µM; with OVCAR-8 ovarian, 20.7 µM; with K-562 leukemia, 27.3 µM; in the assay on CAKI-1 renal, 27.4 µM; in the assay with UO-31 renal it was 24.5 µM. Moreover, the TGI in the assay with SN12C renal is 26.1 µM; in the assay with SNB-19 CNS it was 39.7 µM; in the assay with OVCAR-5 ovarian, 26.1 µM; in the assay with SK-OV-3 ovarian it was 34.2 µM.
With `C/C(CC(=O)Nc1cccc(C)c1C)=N\NC(N)=S`, the TGI with ACHN renal, with OVCAR-4 ovarian, with OVCAR-8 ovarian, with K-562 leukemia, in the assay with CAKI-1 renal and in the assay on UO-31 renal was > 100 µM throughout. The TGI in the assay with SN12C renal, with SNB-19 CNS, with OVCAR-5 ovarian and with SK-OV-3 ovarian was > 100 µM in each case.
Take `O=[P+](O)c1cccnc1`: the TGI in the assay with ACHN renal, in the assay with OVCAR-4 ovarian, in the assay with OVCAR-8 ovarian, with K-562 leukemia, in the assay with CAKI-1 renal and in the assay with UO-31 renal was > 100 µM each time. The TGI in the assay with SN12C renal, with SNB-19 CNS, in the assay with OVCAR-5 ovarian and in the assay with SK-OV-3 ovarian was > 100 µM in each case.
For `CNC(=O)c1cc(Oc2ccc3nc(NC(=O)Nc4cc(C(F)(F)F)cc(C(F)(F)F)c4)sc3c2)ccn1`, the GI50 is 542 nM in the assay with ACHN renal; 958 nM in the assay on OVCAR-4 ovarian; 1330 nM in the assay with OVCAR-8 ovarian; 784 nM with K-562 leukemia; 1150 nM in the assay on CAKI-1 renal; 1260 nM in the assay on UO-31 renal. The GI50 is 1640 nM in the assay on SN12C renal, 1340 nM in the assay with SNB-19 CNS, 1550 nM in the assay with OVCAR-5 ovarian and 1430 nM in the assay on SK-OV-3 ovarian. For the same molecule, the TGI is 1.98 µM in the assay with ACHN renal; 2.73 µM in the assay with OVCAR-4 ovarian; 2.69 µM in the assay on OVCAR-8 ovarian; 4.86 µM in the assay with K-562 leukemia; 2.69 µM in the assay on CAKI-1 renal; 2.68 µM in the assay on UO-31 renal. Besides, the TGI is 3.79 µM with SN12C renal, 4.43 µM in the assay on SNB-19 CNS, 3.52 µM with OVCAR-5 ovarian and 3.18 µM in the assay on SK-OV-3 ovarian.
With `C1=CC(=NN=P(c2ccccc2)(c2ccccc2)c2ccccc2)C=C1`, the TGI with ACHN renal, with OVCAR-4 ovarian, in the assay on OVCAR-8 ovarian, in the assay with K-562 leukemia, with CAKI-1 renal and with UO-31 renal was > 100 µM in each case. Besides, the TGI in the assay on SN12C renal, in the assay with SNB-19 CNS, with OVCAR-5 ovarian and in the assay on SK-OV-3 ovarian was > 100 µM in each case.
In the case of `COC(=O)Cc1nn2c(nc1=O)sc1ccc3ccccc3c12`, the TGI in the assay with ACHN renal, in the assay on OVCAR-4 ovarian, in the assay on OVCAR-8 ovarian, with K-562 leukemia, in the assay on CAKI-1 renal and in the assay on UO-31 renal was > 100 µM in each case. The TGI in the assay on SN12C renal, in the assay with SNB-19 CNS, in the assay on OVCAR-5 ovarian and with SK-OV-3 ovarian was > 100 µM in each case.
`Cc1ccc(S(=O)(=O)OC2CSSCC2OS(=O)(=O)c2ccc(C)cc2)cc1` (stereo not given): the TGI in the assay on ACHN renal came to 28.9 µM; with OVCAR-4 ovarian it was 23.3 µM; with OVCAR-8 ovarian, 26.1 µM; with K-562 leukemia, 47.6 µM; with CAKI-1 renal, 26.1 µM; in the assay with UO-31 renal it was 28.5 µM. The TGI came to 24 µM in the assay with SN12C renal, 31.7 µM in the assay with SNB-19 CNS, 38 µM in the assay on OVCAR-5 ovarian and 38.4 µM in the assay with SK-OV-3 ovarian.
Take `CCOC(=O)Nc1cc(-c2ccc(C)c(NS(C)(=O)=O)c2)nn2c(C)nnc12`: the GI50 is 2640 nM with ACHN renal; 735 nM in the assay with OVCAR-4 ovarian; 2040 nM with OVCAR-8 ovarian; 1730 nM in the assay on K-562 leukemia; 537 nM with CAKI-1 renal; 697 nM in the assay with UO-31 renal. Besides, the GI50 was 2060 nM in the assay with SN12C renal, 799 nM in the assay on SNB-19 CNS, 2640 nM in the assay on OVCAR-5 ovarian and 1210 nM in the assay on SK-OV-3 ovarian. Also, the TGI in the assay on ACHN renal was 60.7 µM; in the assay on OVCAR-4 ovarian, 10.9 µM; in the assay with OVCAR-8 ovarian it was > 100 µM; with K-562 leukemia, > 100 µM; in the assay with CAKI-1 renal, 23.6 µM; in the assay on UO-31 renal, > 100 µM. The TGI in the assay with SN12C renal was 58.5 µM; in the assay with SNB-19 CNS, > 100 µM; in the assay on OVCAR-5 ovarian it was 31.3 µM; with SK-OV-3 ovarian, 5.66 µM.
As to `COc1cc(/C=C2\CC3C4CCC5=CC(=O)CC[C@]5(C)C4CC[C@]3(C)C2=O)ccc1OCCN1CCCCC1` (stereo not given in full), the GI50 is 3840 nM in the assay on ACHN renal; 8350 nM in the assay on OVCAR-4 ovarian; 15900 nM with OVCAR-8 ovarian; 2800 nM in the assay with K-562 leukemia; 2290 nM in the assay on CAKI-1 renal; 7870 nM in the assay with UO-31 renal. For the same molecule, the GI50 with SN12C renal was 2790 nM; in the assay with SNB-19 CNS, 6160 nM; in the assay on OVCAR-5 ovarian it was 8260 nM; with SK-OV-3 ovarian, 20500 nM. The TGI was 13.1 µM in the assay on ACHN renal; 92.2 µM in the assay with OVCAR-4 ovarian; 62.5 µM with OVCAR-8 ovarian; 16.6 µM in the assay with K-562 leukemia; 5.89 µM in the assay with CAKI-1 renal; > 100 µM in the assay with UO-31 renal. Moreover, the TGI in the assay on SN12C renal turned out to be 9.56 µM; with SNB-19 CNS, 31 µM; in the assay on OVCAR-5 ovarian it was 28.5 µM; in the assay with SK-OV-3 ovarian, 48.7 µM.
With `COC1/C=C/OC2(C)Oc3c(C)c(O)c4c(O)c(c(C=NOC(c5ccccc5)c5ccccc5)c(O)c4c3C2=O)NC(=O)/C(C)=C/C=C/C(C)C(O)C(C)C(O)C(C)C(OC(C)=O)C1C` (stereo not given), the GI50 is 1170 nM in the assay with ACHN renal; 1630 nM in the assay on OVCAR-4 ovarian; 1560 nM in the assay with OVCAR-8 ovarian; 2170 nM in the assay with K-562 leukemia; 1770 nM in the assay with CAKI-1 renal; 1650 nM in the assay on UO-31 renal. In addition, the GI50 with SN12C renal was 1310 nM; in the assay on SNB-19 CNS it was 1890 nM; in the assay with OVCAR-5 ovarian it was 984 nM; in the assay with SK-OV-3 ovarian, 1880 nM. Further, the TGI in the assay on ACHN renal amounted to 2.73 µM; in the assay with OVCAR-4 ovarian it was 6.01 µM; with OVCAR-8 ovarian it was 4.64 µM; in the assay with K-562 leukemia, 50 µM; with CAKI-1 renal it was 7.15 µM; in the assay with UO-31 renal, 7.74 µM. In addition, the TGI in the assay with SN12C renal is 3.53 µM; in the assay with SNB-19 CNS, 6.87 µM; in the assay with OVCAR-5 ovarian, 2.49 µM; in the assay on SK-OV-3 ovarian, 6.67 µM.
In the case of `CCCCCCn1c2c(c3c(O)cccc31)C(=O)c1ccccc1-2`, the GI50 in the assay on ACHN renal is 16600 nM; with OVCAR-4 ovarian, 25000 nM; with OVCAR-8 ovarian it was 17400 nM; with K-562 leukemia, 23700 nM; with CAKI-1 renal, 26900 nM; in the assay on UO-31 renal, 16100 nM. The GI50 with SN12C renal is 17600 nM; with SNB-19 CNS it was 39400 nM; in the assay with OVCAR-5 ovarian, 18600 nM; with SK-OV-3 ovarian, 36300 nM. Moreover, the TGI with ACHN renal amounted to 30.3 µM; in the assay with OVCAR-4 ovarian it was 53 µM; in the assay with OVCAR-8 ovarian, 36.7 µM; in the assay with K-562 leukemia, 58.4 µM; in the assay with CAKI-1 renal, 63.8 µM; in the assay with UO-31 renal, 31.2 µM. Further, the TGI with SN12C renal was 32 µM; in the assay on SNB-19 CNS it was > 100 µM; with OVCAR-5 ovarian, 32.8 µM; with SK-OV-3 ovarian it was > 100 µM.
For the molecule `O=C1NC(Cc2ccccc2)C(=O)N2CCCC12` (stereo not given), the TGI with ACHN renal, in the assay on OVCAR-4 ovarian, with OVCAR-8 ovarian, with K-562 leukemia, in the assay on CAKI-1 renal and in the assay with UO-31 renal was > 100 µM in each case. Moreover, the TGI in the assay on SN12C renal, in the assay on SNB-19 CNS, in the assay with OVCAR-5 ovarian and in the assay on SK-OV-3 ovarian was > 100 µM throughout.
